Where a SMILES comes first, the peptide text is derived from it. Bridges are numbered along the chain shown (N, C = ends). [ ]: non-standard residue; d: D form. hMet = CSCCC[C@H](N)C(=O)O
Key:
Rattus norvegicus [1] = species on record: Rattus norvegicus; assay: Selectivity ratio of IC50 for rat alpha6/alpha3beta4 nACHR expressed in xenopous laevis oocyte at -80 mV holding potential to IC50 for rat alpha3beta4 nACHR expressed in xenopous laevis oocyte at -80 mV holding potential
[2] = biological target: T1, Neuronal acetylcholine receptor; alpha3/beta4 (Rattus norvegicus, UniProt P04757+P12392); assay: Antagonist activity at rat alpha3beta4 nACHR expressed in xenopous laevis oocyte assessed as inhibition of ACh induced channel current at -80 mV holding potential by two electrode voltage clamp method
[3] = biological target: T2, Nicotinic acetylcholine receptor alpha6/alpha3/beta4 (Rattus norvegicus, UniProt P04757+P12392+P43143); assay: Antagonist activity at rat alpha6/alpha3beta4 nACHR expressed in xenopous laevis oocyte assessed as inhibition of ACh induced channel current at -80 mV holding potential by two electrode voltage clamp method
Rattus norvegicus [4] = species on record: Rattus norvegicus; assay: Selectivity ratio of IC50 for rat alpha6/alpha3beta4 nACHR expressed in xenopous laevis oocyte at -70 mV holding potential to IC50 for rat alpha3beta4 nACHR expressed in xenopous laevis oocyte at -70 mV holding potential
[5] = biological target: T2, Nicotinic acetylcholine receptor alpha6/alpha3/beta4; assay: Antagonist activity at rat alpha6/alpha3beta4 nACHR expressed in xenopous laevis oocyte assessed as inhibition of ACh induced channel current at -70 mV holding potential by two electrode voltage clamp method
[6] = biological target: T1, Neuronal acetylcholine receptor; alpha3/beta4; assay: Antagonist activity at rat alpha3beta4 nACHR expressed in xenopous laevis oocyte assessed as inhibition of ACh induced channel current at -70 mV holding potential by two electrode voltage clamp method
[7] = biological target: T2, Nicotinic acetylcholine receptor alpha6/alpha3/beta4; assay: Antagonist activity at rat alpha6/alpha3beta4 nACHR expressed in xenopous laevis oocyte assessed as inhibition of ACh induced channel current after 5 mins at -70 mV holding potential by two electrode voltage clamp method
[8] = biological target: T1, Neuronal acetylcholine receptor; alpha3/beta4; assay: Antagonist activity at rat alpha3beta4 nACHR expressed in xenopous laevis oocyte assessed as inhibition of ACh induced channel current after 5 mins at -70 mV holding potential by two electrode voltage clamp method
[9] = biological target: Neuronal acetylcholine receptor; alpha3/beta2 (Rattus norvegicus, UniProt P04757+P12390); assay: Antagonist activity at rat alpha3beta2 nACHR expressed in xenopous laevis oocyte assessed as inhibition of ACh induced channel current after 5 mins at -70 mV holding potential by two electrode voltage clamp method
[10] = biological target: Neuronal acetylcholine receptor; alpha2/beta4 (Rattus norvegicus, UniProt P12389+P12392); assay: Antagonist activity at rat alpha2beta4 nACHR expressed in xenopous laevis oocyte assessed as inhibition of ACh induced channel current after 5 mins at -70 mV holding potential by two electrode voltage clamp method
[11] = biological target: Neuronal acetylcholine receptor; alpha4/beta4 (Rattus norvegicus, UniProt P09483+P12392); assay: Antagonist activity at rat alpha4beta4 nACHR expressed in xenopous laevis oocyte assessed as inhibition of ACh induced channel current after 5 mins at -70 mV holding potential by two electrode voltage clamp method
[12] = biological target: Neuronal acetylcholine receptor; alpha4/beta2 (Rattus norvegicus, UniProt P09483+P12390); assay: Antagonist activity at rat alpha4beta2 nACHR expressed in xenopous laevis oocyte assessed as inhibition of ACh induced channel current after 5 mins at -70 mV holding potential by two electrode voltage clamp method
[13] = biological target: Nicotinic acetylcholine receptor alpha9/alpha10 (Rattus norvegicus, UniProt P43144+Q9JLB5); assay: Antagonist activity at rat alpha9alpha10 nACHR expressed in xenopous laevis oocyte assessed as inhibition of ACh induced channel current after 5 mins at -70 mV holding potential by two electrode voltage clamp method
[14] = biological target: Neuronal acetylcholine receptor subunit alpha-7 (Rattus norvegicus, UniProt Q05941); assay: Antagonist activity at rat alpha7 nACHR expressed in xenopous laevis oocyte assessed as inhibition of ACh induced channel current after 5 mins at -70 mV holding potential by two electrode voltage clamp method
[15] = biological target: Neuronal acetylcholine receptor; alpha2/beta2 (Rattus norvegicus, UniProt P12389+P12390); assay: Antagonist activity at rat alpha2beta2 nACHR expressed in xenopous laevis oocyte assessed as inhibition of ACh induced channel current after 5 mins at -70 mV holding potential by two electrode voltage clamp method

T2 sequence (P04757 whole entry): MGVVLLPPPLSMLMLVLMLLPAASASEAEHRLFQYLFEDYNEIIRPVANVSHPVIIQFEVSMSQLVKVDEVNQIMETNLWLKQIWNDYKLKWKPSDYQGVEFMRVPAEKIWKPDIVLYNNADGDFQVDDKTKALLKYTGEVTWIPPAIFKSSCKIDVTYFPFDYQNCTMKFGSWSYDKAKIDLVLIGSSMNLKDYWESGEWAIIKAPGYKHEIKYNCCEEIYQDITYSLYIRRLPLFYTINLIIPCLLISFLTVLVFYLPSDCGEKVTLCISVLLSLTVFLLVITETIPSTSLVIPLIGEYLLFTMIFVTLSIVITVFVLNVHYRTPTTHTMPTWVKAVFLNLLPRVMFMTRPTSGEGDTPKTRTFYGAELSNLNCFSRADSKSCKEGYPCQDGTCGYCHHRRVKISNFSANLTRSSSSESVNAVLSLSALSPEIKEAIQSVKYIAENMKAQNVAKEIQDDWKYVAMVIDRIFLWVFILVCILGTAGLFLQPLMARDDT
T2 sequence (P12392 whole entry): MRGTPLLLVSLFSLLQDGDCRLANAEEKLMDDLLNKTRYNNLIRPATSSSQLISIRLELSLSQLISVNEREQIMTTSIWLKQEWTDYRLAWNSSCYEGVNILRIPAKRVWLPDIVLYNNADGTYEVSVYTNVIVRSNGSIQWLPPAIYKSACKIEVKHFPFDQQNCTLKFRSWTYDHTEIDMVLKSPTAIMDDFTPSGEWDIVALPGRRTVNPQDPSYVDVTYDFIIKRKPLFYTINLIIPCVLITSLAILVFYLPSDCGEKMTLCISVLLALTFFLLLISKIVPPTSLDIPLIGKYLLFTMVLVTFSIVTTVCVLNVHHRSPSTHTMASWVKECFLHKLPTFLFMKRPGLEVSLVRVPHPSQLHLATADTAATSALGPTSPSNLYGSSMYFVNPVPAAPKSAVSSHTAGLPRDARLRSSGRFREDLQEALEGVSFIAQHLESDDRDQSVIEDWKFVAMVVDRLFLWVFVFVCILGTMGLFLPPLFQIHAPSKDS
T2 sequence (P43143 whole entry): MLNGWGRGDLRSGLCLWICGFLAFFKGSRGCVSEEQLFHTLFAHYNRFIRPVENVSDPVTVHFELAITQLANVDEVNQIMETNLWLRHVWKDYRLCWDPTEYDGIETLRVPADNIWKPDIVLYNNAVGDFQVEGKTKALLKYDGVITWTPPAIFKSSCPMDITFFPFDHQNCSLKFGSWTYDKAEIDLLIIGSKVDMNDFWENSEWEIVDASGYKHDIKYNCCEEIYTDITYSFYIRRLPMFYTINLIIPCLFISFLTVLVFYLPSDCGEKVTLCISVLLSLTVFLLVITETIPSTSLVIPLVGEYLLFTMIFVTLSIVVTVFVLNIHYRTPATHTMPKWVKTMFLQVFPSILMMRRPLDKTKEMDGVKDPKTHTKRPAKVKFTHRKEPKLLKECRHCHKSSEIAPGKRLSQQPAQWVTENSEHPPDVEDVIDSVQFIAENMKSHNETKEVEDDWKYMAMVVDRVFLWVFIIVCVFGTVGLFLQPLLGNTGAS
T1 sequence (P04757 whole entry): as the sequence (P04757 whole entry) above
T1 sequence (P12392 whole entry): as the sequence (P12392 whole entry) above
Chain of Neuronal acetylcholine receptor; alpha3/beta2 (P04757 whole entry): as the sequence (P04757 whole entry) above
Chain of Neuronal acetylcholine receptor; alpha3/beta2 (P12390 whole entry): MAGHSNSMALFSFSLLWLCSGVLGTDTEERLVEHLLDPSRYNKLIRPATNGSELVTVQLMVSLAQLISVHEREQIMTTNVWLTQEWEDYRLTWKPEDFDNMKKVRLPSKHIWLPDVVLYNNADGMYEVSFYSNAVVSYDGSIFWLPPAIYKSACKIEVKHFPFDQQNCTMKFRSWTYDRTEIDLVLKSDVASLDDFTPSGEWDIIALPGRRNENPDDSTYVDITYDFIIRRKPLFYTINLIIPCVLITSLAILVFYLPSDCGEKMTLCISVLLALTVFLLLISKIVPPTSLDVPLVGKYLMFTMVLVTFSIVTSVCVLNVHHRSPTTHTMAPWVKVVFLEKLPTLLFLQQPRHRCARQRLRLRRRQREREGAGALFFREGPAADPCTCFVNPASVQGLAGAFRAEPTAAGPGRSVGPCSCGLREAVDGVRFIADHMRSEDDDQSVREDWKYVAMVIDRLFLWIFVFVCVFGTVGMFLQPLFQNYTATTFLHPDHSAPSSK
Chain of Neuronal acetylcholine receptor subunit alpha-7 (Q05941 whole entry): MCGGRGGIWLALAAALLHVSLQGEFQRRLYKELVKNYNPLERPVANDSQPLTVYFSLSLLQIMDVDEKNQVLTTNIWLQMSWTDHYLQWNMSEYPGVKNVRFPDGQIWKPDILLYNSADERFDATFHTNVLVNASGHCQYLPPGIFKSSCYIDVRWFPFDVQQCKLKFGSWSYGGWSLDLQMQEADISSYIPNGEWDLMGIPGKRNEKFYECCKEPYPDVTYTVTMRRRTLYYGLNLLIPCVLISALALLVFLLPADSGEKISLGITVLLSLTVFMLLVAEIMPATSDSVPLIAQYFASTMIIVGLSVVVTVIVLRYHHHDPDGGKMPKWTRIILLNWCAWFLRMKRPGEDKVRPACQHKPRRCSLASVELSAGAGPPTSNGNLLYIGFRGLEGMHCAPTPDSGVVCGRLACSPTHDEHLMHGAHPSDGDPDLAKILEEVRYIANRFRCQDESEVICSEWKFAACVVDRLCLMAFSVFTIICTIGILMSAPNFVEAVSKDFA
Chain of Neuronal acetylcholine receptor; alpha2/beta4 (P12389 whole entry): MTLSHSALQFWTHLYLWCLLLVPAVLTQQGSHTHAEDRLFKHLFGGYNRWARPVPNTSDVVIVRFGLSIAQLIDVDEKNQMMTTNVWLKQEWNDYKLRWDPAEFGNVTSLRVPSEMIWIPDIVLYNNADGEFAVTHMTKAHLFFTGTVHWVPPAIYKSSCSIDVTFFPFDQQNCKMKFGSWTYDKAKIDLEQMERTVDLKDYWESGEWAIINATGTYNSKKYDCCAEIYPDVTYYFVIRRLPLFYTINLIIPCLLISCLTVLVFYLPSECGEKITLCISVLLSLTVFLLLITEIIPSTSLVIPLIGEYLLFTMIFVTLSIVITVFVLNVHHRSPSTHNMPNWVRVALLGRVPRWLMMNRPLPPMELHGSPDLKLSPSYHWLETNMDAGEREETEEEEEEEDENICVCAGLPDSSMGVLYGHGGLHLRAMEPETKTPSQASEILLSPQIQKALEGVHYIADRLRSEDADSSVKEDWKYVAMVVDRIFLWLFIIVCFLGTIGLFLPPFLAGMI
Chain of Neuronal acetylcholine receptor; alpha2/beta4 (P12392 whole entry): as the sequence (P12392 whole entry) above

Compound	IC50 [7]	IC50 [8]	other results
CC[C@H](C)[C@@H]1NC(=O)[C@H](Cc2cnc[nH]2)NC(=O)[C@@H]2CCCN2C(=O)[C@H](C)NC(=O)[C@H](C)NC(=O)[C@H](C(C)C)NC(=O)[C@H](CC(N)=O)NC(=O)[C@@H]2CSSC[C@H](NC(=O)[C@@H](NC(=O)CN)CSSC[C@H](C(=O)O)NC1=O)C(=O)N[C@@H](CO)C(=O)N[C@@H](Cc1c[nH]cn1)C(=O)N1CCC[C@H]1C(=O)N[C@@H](C)C(=O)N2			Ratio IC50 (Rattus norvegicus [1]): 14; IC50 [2]: 370 nM; IC50 [3]: 5100 nM
CC(C)C[C@@H]1NC(=O)[C@H](C(C)C)NC(=O)[C@H](C)NC(=O)[C@@H]2CSSC[C@H](NC(=O)CN)C(=O)N[C@@H](CSSC[C@H](C(N)=O)NC(=O)[C@H](Cc3ccc(O)cc3)NC1=O)C(=O)N[C@@H](CO)C(=O)N[C@@H]([C@@H](C)O)C(=O)N1CCC[C@H]1C(=O)N1CCC[C@H]1C(=O)N2			Ratio IC50 (Rattus norvegicus [4]): 0.056; IC50 [5]: 1.54 nM; IC50 [6]: 27.7 nM
CC[C@H](C)[C@@H]1NC(=O)[C@H](Cc2cnc[nH]2)NC(=O)[C@@H]2CCCN2C(=O)[C@H](CC(N)=O)NC(=O)[C@H](CC(N)=O)NC(=O)[C@H](C(C)C)NC(=O)[C@H](CC(N)=O)NC(=O)[C@@H]2CSSC[C@H](NC(=O)[C@@H](NC(=O)CN)CSSC[C@H](C(=O)O)NC1=O)C(=O)N[C@@H](CO)C(=O)N[C@@H](Cc1c[nH]cn1)C(=O)N1CCC[C@H]1C(=O)N[C@@H](C)C(=O)N2			Ratio IC50 (Rattus norvegicus [1]): 3.1; IC50 [2]: 47.3 nM; IC50 [3]: 147 nM
CC(C)C[C@@H]1NC(=O)[C@H](C(C)C)NC(=O)[C@H](C)NC(=O)[C@@H]2CSSC[C@H](NC(=O)CN)C(=O)N[C@@H](CSSC[C@H](C(N)=O)NC(=O)[C@H](Cc3ccc(O)cc3)NC1=O)C(=O)N[C@@H](CO)C(=O)N[C@@H](C)C(=O)N[C@@H](CCCN)C(=O)N1CCC[C@H]1C(=O)N2	58.1 nM	1200 nM	
CC[C@H](C)[C@@H]1NC(=O)[C@@H]2CCCN2C(=O)[C@H](CO)NC(=O)[C@H](CCCSC)NC(=O)[C@H](C)NC(=O)[C@H](CO)NC(=O)[C@@H]2CSSC[C@H](NC(=O)[C@H](C)N)C(=O)N[C@@H](CSSC[C@@H](C(N)=O)NC1=O)C(=O)N[C@@H](CO)C(=O)N[C@@H](Cc1cnc[nH]1)C(=O)N1CCC[C@H]1C(=O)N[C@@H](C(C)C)C(=O)N2 (H-ACCSHPVCSA[hMet]SPIC-NH2; disulfide 2-8, 3-15)	278 nM	61.9 nM	
CC[C@H](C)[C@@H]1NC(=O)[C@@H]2CCCN2C(=O)[C@H](CO)NC(=O)[C@H](CCCSC)NC(=O)[C@H](C)NC(=O)[C@H](CO)NC(=O)[C@@H]2CSSC[C@H](NC(=O)CN)C(=O)N[C@@H](CSSC[C@@H](C(N)=O)NC1=O)C(=O)N[C@@H](C)C(=O)N[C@@H](Cc1cnc[nH]1)C(=O)N1CCC[C@H]1C(=O)N[C@@H](C(C)C)C(=O)N2 (H-GCCAHPVCSA[hMet]SPIC-NH2; disulfide 2-8, 3-15)	64.1 nM	10.8 nM	
CC[C@H](C)[C@@H]1NC(=O)[C@@H]2CCCN2C(=O)[C@H](CO)NC(=O)[C@H](CCCSC)NC(=O)[C@H](C)NC(=O)[C@H](CO)NC(=O)[C@@H]2CSSC[C@H](NC(=O)CN)C(=O)N[C@@H](CSSC[C@@H](C(N)=O)NC1=O)C(=O)N[C@@H](CO)C(=O)N[C@@H](C)C(=O)N1CCC[C@H]1C(=O)N[C@@H](C(C)C)C(=O)N2 (H-GCCSAPVCSA[hMet]SPIC-NH2; disulfide 2-8, 3-15)	> 10000 nM	> 10000 nM	
CC[C@H](C)[C@@H]1NC(=O)[C@@H]2CCCN2C(=O)[C@H](CO)NC(=O)[C@H](CCCSC)NC(=O)[C@H](C)NC(=O)[C@H](CO)NC(=O)[C@@H]2CSSC[C@H](NC(=O)CN)C(=O)N[C@@H](CSSC[C@@H](C(N)=O)NC1=O)C(=O)N[C@@H](CO)C(=O)N[C@@H](Cc1cnc[nH]1)C(=O)N[C@@H](C)C(=O)N[C@@H](C(C)C)C(=O)N2 (H-GCCSHAVCSA[hMet]SPIC-NH2; disulfide 2-8, 3-15)	> 10000 nM	> 10000 nM	
CC[C@H](C)[C@@H]1NC(=O)[C@@H]2CCCN2C(=O)[C@H](CO)NC(=O)[C@H](CCCSC)NC(=O)[C@H](C)NC(=O)[C@H](C)NC(=O)[C@@H]2CSSC[C@H](NC(=O)CN)C(=O)N[C@@H](CSSC[C@@H](C(N)=O)NC1=O)C(=O)N[C@@H](CO)C(=O)N[C@@H](Cc1cnc[nH]1)C(=O)N1CCC[C@H]1C(=O)N[C@@H](C(C)C)C(=O)N2 (H-GCCSHPVCAA[hMet]SPIC-NH2; disulfide 2-8, 3-15)			IC50 [9]: > 10000 nM; IC50 [10]: > 10000 nM; IC50 [11]: > 10000 nM; IC50 [12]: > 10000 nM; IC50 [13]: > 10000 nM; IC50 [14]: > 10000 nM; IC50 [15]: > 10000 nM
CC[C@H](C)[C@@H]1NC(=O)[C@H](C)NC(=O)[C@H](CO)NC(=O)[C@H](CCCSC)NC(=O)[C@H](C)NC(=O)[C@H](CO)NC(=O)[C@@H]2CSSC[C@H](NC(=O)CN)C(=O)N[C@@H](CSSC[C@@H](C(N)=O)NC1=O)C(=O)N[C@@H](CO)C(=O)N[C@@H](Cc1cnc[nH]1)C(=O)N1CCC[C@H]1C(=O)N[C@@H](C(C)C)C(=O)N2 (H-GCCSHPVCSA[hMet]SAIC-NH2; disulfide 2-8, 3-15)	> 10000 nM	> 10000 nM	
CSCCC[C@@H]1NC(=O)[C@H](C)NC(=O)[C@H](CO)NC(=O)[C@@H]2CSSC[C@H](NC(=O)CN)C(=O)N[C@@H](CSSC[C@@H](C(N)=O)NC(=O)[C@H](C)NC(=O)[C@@H]3CCCN3C(=O)[C@H](CO)NC1=O)C(=O)N[C@@H](CO)C(=O)N[C@@H](Cc1cnc[nH]1)C(=O)N1CCC[C@H]1C(=O)N[C@@H](C(C)C)C(=O)N2 (H-GCCSHPVCSA[hMet]SPAC-NH2; disulfide 2-8, 3-15)	45.8 nM	16.1 nM	
CSCCC[C@@H]1NC(=O)[C@H](C)NC(=O)[C@H](CO)NC(=O)[C@@H]2CSSC[C@H](NC(=O)CN)C(=O)N[C@@H](CSSC[C@@H](C(N)=O)NC(=O)[C@H](CC(=O)O)NC(=O)[C@@H]3CCCN3C(=O)[C@H](CO)NC1=O)C(=O)N[C@@H](CO)C(=O)N[C@@H](Cc1cnc[nH]1)C(=O)N1CCC[C@H]1C(=O)N[C@@H](C(C)C)C(=O)N2 (H-GCCSHPVCSA[hMet]SPDC-NH2; disulfide 2-8, 3-15)	67.4 nM	9.2 nM	
CSCCC[C@@H]1NC(=O)[C@H](C)NC(=O)[C@H](CO)NC(=O)[C@@H]2CSSC[C@H](NC(=O)CN)C(=O)N[C@@H](CSSC[C@@H](C(N)=O)NC(=O)[C@H](CCCNC(=N)N)NC(=O)[C@@H]3CCCN3C(=O)[C@H](CO)NC1=O)C(=O)N[C@@H](CO)C(=O)N[C@@H](Cc1cnc[nH]1)C(=O)N1CCC[C@H]1C(=O)N[C@@H](C(C)C)C(=O)N2 (H-GCCSHPVCSA[hMet]SPRC-NH2; disulfide 2-8, 3-15)	40.8 nM	9.8 nM	
CSCCC[C@@H]1NC(=O)[C@H](C)NC(=O)[C@H](CO)NC(=O)[C@@H]2CSSC[C@H](NC(=O)CN)C(=O)N[C@@H](CSSC[C@@H](C(N)=O)NC(=O)[C@H](Cc3ccc(O)cc3)NC(=O)[C@@H]3CCCN3C(=O)[C@H](CO)NC1=O)C(=O)N[C@@H](CO)C(=O)N[C@@H](Cc1cnc[nH]1)C(=O)N1CCC[C@H]1C(=O)N[C@@H](C(C)C)C(=O)N2 (H-GCCSHPVCSA[hMet]SPYC-NH2; disulfide 2-8, 3-15)	38.7 nM	10 nM	
CC[C@H](C)[C@@H]1NC(=O)[C@H](CO)NC(=O)[C@@H]2CSSC[C@H](NC(=O)CN)C(=O)N[C@@H](CSSC[C@@H](C(N)=O)NC(=O)[C@H]([C@@H](C)CC)NC(=O)[C@@H]3CCCN3C(=O)[C@H](CO)NC(=O)[C@H](CCCSC)NC1=O)C(=O)N[C@@H](CO)C(=O)N[C@@H](Cc1cnc[nH]1)C(=O)N1CCC[C@H]1C(=O)N[C@@H](C(C)C)C(=O)N2 (H-GCCSHPVCSI[hMet]SPIC-NH2; disulfide 2-8, 3-15)	50.4 nM	74.9 nM	
C[C@@H]1NC(=O)[C@H](Cc2ccc(O)cc2)NC(=O)[C@@H]2CSSC[C@H](NC(=O)CN)C(=O)N[C@@H](CSSC[C@@H](C(N)=O)NC(=O)[C@H](CC(=O)O)NC(=O)[C@@H]3CCCN3C(=O)[C@H](CC(N)=O)NC(=O)[C@H]([C@@H](C)O)NC1=O)C(=O)N[C@@H](CO)C(=O)N[C@@H](Cc1ccc(O)cc1)C(=O)N1CCC[C@H]1C(=O)N1CCC[C@H]1C(=O)N2 (H-GCCSYPPCYATNPDC-NH2; disulfide 2-8, 3-15)		750 nM	

From ChEMBL document CHEMBL4011630 (J Med Chem, 2017)
